The values below come from patent US8987195B2 (priority 2012, dated 2015).

For one assay, the system named is HCV genotype 1b replicon. Briefly: HCV replicon assay, genotype 1b replicon EC50. Format: cell-based, Hepatitis C virus. Conditions: Hepatitis C virus, genotype 1b replicon, read-out: EC50 [gt-1b]. In outline: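 Stable neomycin phosphotransferase-encoding replicon cell lines, kept under G418 selection beforehand, were plated with a compound dilution series without G418 and incubated 24-48 hours. Replicon RNA was then quantified, or luciferase activity read. EC50 was calculated as percent of DMSO control by four-parameter fit.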

Assay [1] has as its target HCV NS3/4A protease genotype 1b (Hepatitis C virus genotype 1b, UniProt P26663). Briefly: HCV NS3/4A protease time-resolved fluorescence (TRF) assay, Ki against genotype 1b. Format: biochemical. Conditions: IC50 [gt-1b] (nM), NS3/4A genotype 1b, enzyme 0.2 nM. Put shortly: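 NS3/4A enzyme was preincubated 30 min with inhibitor in 50 mM HEPES pH 7.5, 150 mM NaCl, 15% glycerol, 0.15% Triton X-100, 10 mM DTT, 0.1% PEG 8000; 25 nM europium TRF peptide substrate added, 2.5 h at room temperature. Enzyme: 0.2 nM (1b), 0.4 nM (A156T), 0.025 nM (3a). Ki from IC50 via Cheng-Prusoff.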

Where two headings read alike, the source gives them in different places.

Take `COc1ccc2nc(C3CC3)c3c(c2c1)CC[C@]1(C[C@H]2C(=O)N[C@]4(C(=O)NS(=O)(=O)C5(C)CC5)C[C@H]4/C=C\CCCCC[C@H](NC(=O)NC(C)(C)C)C(=O)N2C1)O3` [Example 90, (2R,6S,12Z,13aS,14aR,16aS)-6-[(tert-butylcarbamoyl)amino]-5′-cyclopropyl-9′-methoxy-N-[(1-methylcyclopropyl)sulfonyl]-5,16-dioxo-1,1′,2′,6,7,8,9,10,11,13a,14,15,16,16a-tetradecahydrospiro[cyclopropa[e]pyrrolo[1,2-a][1,4]diazacyclopentadecine-2,3′-pyrano[2,3-c]quinoline]-14a(5H)-carboxamide]: in the assay on HCV genotype 1b replicon, the EC50 worked out at 1.15 nM. Besides, the midpoint of inhibition in assay [1], the IC50, lay at 0.006 nM.
The corresponding values for `Cc1nc2ccc(OC(F)(F)F)cc2c2c1O[C@]1(CC2)C[C@H]2C(=O)N[C@]3(C(=O)NS(=O)(=O)C4(C)CC4)C[C@H]3/C=C\CCCCC[C@H](NC(=O)OC(C)(C)CCS(=O)(=O)C(C)C)C(=O)N2C1` [Example 305, 2-methyl-4-(propan-2-ylsulfonyl)butan-2-yl [(2R,6S,12Z,13aS,14aR,16aS)-5′-methyl-14a-{[(1-methylcyclopropyl)sulfonyl]carbamoyl}-5,16-dioxo-9′-(trifluoromethoxy)-1,1′,2′,5,6,7,8,9,10,11,13a,14,14a,15,16,16a-hexadecahydrospiro[cyclopropa[e]pyrrolo[1,2-a][1,4]diazacyclopentadecine-2,3′-pyrano[2,3-c]quinolin]-6-yl]carbamate] are 35.2 nM and 0.029 nM.
Consider `COc1ccc2nc(C3CC3)c3c(c2c1)CC[C@]1(C[C@H]2C(=O)N[C@]4(C(=O)NS(=O)(=O)C5(C)CC5)C[C@H]4/C=C\CCCCC[C@H](NC(=O)OCC(C)C)C(=O)N2C1)O3` [Example 100, 2-methylpropyl [(2R,6S,12Z,13aS,14aR,16aS)-5′-cyclopropyl-9′-methoxy-14a-{[(1-methylcyclopropyl)sulfonyl]carbamoyl}-5,16-dioxo-1,1′,2′,5,6,7,8,9,10,11,13a,14,14a,15,16,16a-hexadecahydrospiro[cyclopropa[e]pyrrolo[1,2-a][1,4]diazacyclopentadecine-2,3′-pyrano[2,3-c]quinolin]-6-yl]carbamate], for which the EC50 with HCV genotype 1b replicon amounted to 2.08 nM. In assay [1], this compound returned an IC50 of 0.011 nM.
`Cc1nc2ccc(OC(F)(F)F)cc2c2c1O[C@]1(CC2)C[C@H]2C(=O)N[C@]3(C(=O)NS(=O)(=O)C4(C)CC4)C[C@H]3/C=C\CCCCC[C@H](NC(=O)OC(C)C)C(=O)N2C1` [Example 123, propan-2-yl [(2R,6S,12Z,13aS,14aR,16aS)-5′-methyl-14a-{[(1-methylcyclopropyl)sulfonyl]carbamoyl}-5,16-dioxo-9′-(trifluoromethoxy)-1,1′,2′,5,6,7,8,9,10,11,13a,14,14a,15,16,16a-hexadecahydrospiro[cyclopropa[e]pyrrolo[1,2-a][1,4]diazacyclopentadecine-2,3′-pyrano[2,3-c]quinolin]-6-yl]carbamate]: the EC50 with HCV genotype 1b replicon worked out at 2.07 nM. Besides, the IC50 in assay [1] came out at 0.017 nM.
Regarding `Cc1nc2ccc(OC(F)(F)F)cc2c2c1O[C@@]1(C[C@H]3C(=O)N[C@]4(C(=O)NS(=O)(=O)C5(C)CC5)C[C@H]4/C=C\CCCCC[C@H](NC(=O)OC4CCCC4)C(=O)N3C1)CC2(F)F` [Example 227, cyclopentyl [(2S,6S,12Z,13aS,14aR,16aS)-1′,1′-difluoro-5′-methyl-14a-{[(1-methylcyclopropyl)sulfonyl]carbamoyl}-5,16-dioxo-9′-(trifluoromethoxy)-1,1′,2′,5,6,7,8,9,10,11,13a,14,14a,15,16,16a-hexadecahydrospiro[cyclopropa[e]pyrrolo[1,2-a][1,4]diazacyclopentadecine-2,3′-pyrano[2,3-c]quinolin]-6-yl]carbamate], the EC50 in the assay on HCV genotype 1b replicon (K+ salt) was 28.4 nM. In assay [1] (K+ salt), the IC50 was determined as 0.043 nM.
